Earlier results in patent US20050014837A1, “Method for treating ocular hypertension and glaucoma” (priority 2001, published 2005).

Details: 0.01% solution; 5, 10 and 20 μL

initial concentration in meniscus relative to the concentration of the administered fluorescein: 36-45%
Structure (SMILES): O=C1OC2(c3ccc(O)cc3Oc3cc(O)ccc32)c2ccccc21 [fluorescein]
